Data: patent US12391646B2, “Using adiponectin receptor agonists to treat inflammation and bone diseases in diabetes” (Trustees of Tufts College, priority 2020, dated 2025)

Legend:
[1] = test system: LPS-stimulated RAW 264.7 macrophages; experiment: qPCR of cytokine mRNA in LPS-stimulated RAW 264.7 macrophages; assay type: cell-based; details: for expression of anti-inflammatory cytokine IL-10: LPS-induced macrophages; for IL-10 expression, longer treatments / IL-10 mRNA expression, treatment for 18 h or less: macrophages; for IL-10 expression, longer treatments: longer than 18 h; for IL-10 mRNA expression, treatment for 18 h or less: no LPS
[2] = test system: DIO mice with experimental periodontitis; experiment: Experimental periodontitis in DIO mice; assay type: in vivo; details: for numbers of osteoclasts on alveolar bone (TRAP stain): compared to vehicle-treated DIO mice; for IL-6 and CCL-2 gene expression in periodontal epithelium: compared to vehicle-treated group; for bodyweight / decrease in fasting blood glucose level: two weeks oral gavage, AdipoRon 50 mg/kg, AdipoAI 25 mg/kg, vs vehicle; for average alveolar bone loss at 6 sites (CEJ-ABC distance): two weeks, vehicle 372.3±27.3 μm
Procedure: FIG. 19 AdipoRon and AdipoAI attenuate experimental periodontitis in diet-induced obesity (DIO). (A) Bodyweight of vehicle, AdipoRon and AdipoAI-treated DIO mice with experimental periodontitis. (B) Fasting blood glucose in DIO mice with experimental periodontitis treated with vehicle, AdipoRon and AdipoAI. (C) A representative 3-dimensional model of alveolar bone in DIO mice with experimental periodontitis. […] The distance from ABC to CEJ in four groups is shown in (D) (n≥7). (E) Representative TRAP-stained alveolar bone in DIO mice with experimental periodontitis. Black arrow, osteoclast (scale bar=200 μm). The number of osteoclasts attached to the alveolar bone surface was calculated (F). (G) Relative expression of IL-6 and CCL2 genes in gingival tissue from DIO mice with experimental periodontitis was analyzed using real-time PCR. The animals were treated AdipoRon and AdipoAI or vehicle alone (n≥5).
DIO (C57BL/6J background, Jax #380050) were purchased from the Jackson Laboratory (Bar Harbor, ME, http://www.jax.org/). After acclimatization, animals were fed a high-fat diet (containing 60% kcal from fat, Jackson Laboratory) from 6 weeks of age onwards. Experimental periodontitis was induced in 20-week-old mice by 5-0 silk suture as described previously 26. Briefly, animals were anesthetized using ketamine/xylazine and buprenorphine and the sutures were placed around the maxillary second molar and tied on the palatal side for 2 weeks. The ethical approval of this study was provided by the IACUC of UCSD. The care and use of laboratory animals and Animal Research was performed in accordance with NIH guidelines.
AdipoRon (50 mg/kg body weight)^23, 24 and the AdipoAI (25 mg/kg body weight)^25 were administered by oral gavage concurrently with establishment of experimental periodontitis for 2 weeks.
Gingival tissues from the palatal side were sampled and immediately stored in liquid nitrogen until further analysis. The skulls were scanned by the Bruker Skyscan micro-CT system (Bruker, Kontich, Belgium). Alveolar bone loss, defined as the distance between the cementoenamel junction (CEJ) to the alveolar bone crest (ABC), was measured at six sites (mesio-buccal, mid-buccal, disto-buccal, mesio-palatal, mid-palatal, and disto-palatal) using Ctan software (http://bruker-microct.com/products/downloads.htm) as previously reported^26. Periodontal hard tissue sections were stained with Acid Phosphatase, Leukocyte (TRAP) Kit (Sigma, St. Louis, MO, USA) according to the manufacturer's instructions.
Total RNA was isolated from cell cultures and gingival soft tissues using TriZol reagent (Life Technologies, Carlsbad, CA, USA) according to the manufacturer's instructions^24. Reverse transcription was performed using the PrimeScript RT Master Mix (Takara Bio, Otsu, Japan) and real-time-qPCR analyses were performed using SYBR-Green Real-Time PCR Master Mix (Takara Bio, Otsu, Japan) as described earlier^27.

[3] = test system: DIO mice; experiment: Systemic inflammation in DIO mice, oral gavage 14 days; assay type: in vivo; details: AdipoAI 25 mg/kg; for mRNA expression of IL-6 and IL-1β in WAT, spleen, bone marrow / serum levels of IL-6 and IL-1β: oral gavage 14 days, APR 50 mg/kg
Procedure: FIG. 3 AdipoAI decreases inflammation in DIO mice (n=6). DIO mice were orally gavaged with APR (50 mg/kg) or AdipoAI (25 mg/kg) for 14 days, and control animals (WT or DIO mice) were administered with equivalent volumes of DMSO. mRNA expression levels of pro-inflammatory cytokines in (a) WAT, (b) spleen and (c) bone marrow were measured by qRT-PCR and normalized to the level of β-actin mRNA. Data are expressed as mean±SEM. (d) Serum levels of IL-6 and IL-1β were measured by ELISA. Data are expressed as mean #SEM. Representative images of H&E (e) and IHC of F4/80 staining (f) of spleen tissue in DIO mice (n=6). Red arrow indicates multinucleated giant cells (megakaryocytes). One-way ANOVA test for multiple-group comparisons, * vs. WT-vehicle group, # vs. DIO-vehicle group. */#P<0.05, significant differences between each indicated group. ns, not significant.
The Ethics Committee on the Use and Care of Animals at Tufts University approved the study protocol (Boston, MA, USA). The animals received humane care according to the criteria outlined in the Guide for the Care and Use of Laboratory Animals prepared by the National Academy of Sciences and published by the National Institutes of Health. All experiments involving animals or animal tissue are reported in compliance with the guidelines of ARRIVE and BJP (Kilkenny et al., 2010; McGrath and Lilley, 2015). Experimental protocols and design adhere to BJP guidelines (Curtis et al., 2015). Wild-type (WT, C57BL/6J, Jax #000664), DIO (Jax #380050), and APN KO (Jax #008195) mice were purchased from the Jackson Laboratory. The DIO mice were fed with a high-fat diet (containing 60% kcal from fat; Jackson Laboratory) at 6 weeks of age and later. The WT mice were fed with ordinary diet as normal chow (NC)-fed mice, and APN KO mice were maintained and fed with an NC diet as previously described (Tu et al., 2011). For the LPS-induced endotoxemia model, male C57BL/6 mice aged 8 weeks received oral gavage with APR (50 mg/kg body weight) or AdipoAI (25 mg/kg body weight) for 24 h before by LPS (20 mg/kg body weight) treatment which was administered intraperitoneally whereas control animals were treated with equivalent volumes of normal PBS. Mouse survival in each group was monitored and recorded up to 84 h. All mice were killed at 1 h for detection of activation of inflammatory genes, at 6 h for determination of inflammatory factors in serum, and at 24 h for histological evaluation. Animal data were excluded from experiments based on pre-established criteria of visible abnormal tissue structure during sample harvest or other health issues, including fighting wounds.

Compound	expression of anti-inflammatory cytokine IL-10 [1]	IL-10 expression, longer treatments [1]	IL-10 mRNA expression, treatment for 18 h or less [1]	numbers of osteoclasts on alveolar bone (TRAP stain) [2]	IL-6 and CCL-2 gene expression in periodontal epithelium [2]	bodyweight [2]	decrease in fasting blood glucose level [2] [%]	average alveolar bone loss at 6 sites (CEJ-ABC distance) [2] [μm]	mRNA expression of IL-6 and IL-1β in WAT, spleen, bone marrow [3]	serum levels of IL-6 and IL-1β [3]	TNF-α expression levels ([1]; LPS-induced Raw264.7 macrophage, BMMs or PEMs (data not shown))	megakaryocytes and macrophages in spleen (H&E, IHC F4/80) ([3]; 14 days)
O=C(COc1ccc(C(=O)c2ccccc2)cc1)NC1CCN(Cc2ccccc2)CC1 [AdipoRon, reference compound]	downregulated expression of the anti-inflammatory cytokine IL-10	decreased IL-10 expression	increased IL-10 mRNA expression	significantly decreased numbers of osteoclasts	significantly attenuated the IL-6 and CCL-2 gene expression	decreased significantly	73.3	344.5±22.2	inhibited the expression levels of IL-6 and IL-1β	inhibited the expression levels of IL-6 and IL-1β	–	–
COc1ccc(CN2CCC(NC(=O)COc3ccc(C(=O)c4ccc(Cl)cc4)cc3)CC2)cc1 [Compound 3]	downregulated expression of the anti-inflammatory cytokine IL-10	decreased IL-10 expression	increased IL-10 mRNA expression	significantly decreased numbers of osteoclasts	significantly attenuated the IL-6 and CCL-2 gene expression	decreased significantly	75.3	328.5±19.9	inhibited mRNA expression of IL-6 (Il6) and IL-1β (Il1β)	reduced IL-6 and IL-1β levels in the serum	did not inhibit TNF-α expression levels	decreased quantity of megakaryocytes and macrophages
